Reference: patent US20170102398A1, “PREDICTING AND REDUCING COGNITIVE DECLINE BASED ON GSK-3 LEVELS” (HUMANETICS CORPORATION, priority 2014, published 2017)

Columns and labels:
[1] = solubility in water; type: physicochemical
Source text: In some embodiments, the D-pinitol can be a component of a dietary supplement or a medical food (e.g., in combination with an edible oil), or a food for special dietary use. Medical foods are, by definition, formulated to be consumed or administered enterally under the supervision of a physician or other medical professional. The manufacture of medical foods typically is done in compliance with FDA Good Manufacturing Practices (GMP) requirements. The term “food for special dietary use” is defined by 21 C.F.R. §105.3, as applied to food for humans, as meaning • particular (as distinguished from general) uses of food, as follows: • (i) Uses for supplying particular dietary needs which exist by reason of a physical, physiological, pathological or other condition, including but not limited to the conditions of diseases, convalescence, pregnancy, lactation, allergic hypersensitivity to food, underweight, and overweight; • (ii) Uses for supplying particular dietary needs which exist by reason of age, including but not limited to the ages of infancy and childhood; • (iii) Uses for supplementing or fortifying the ordinary or usual diet with any vitamin, mineral, or other dietary property. Any such particular use of a food is a special dietary use, regardless of whether such food also purports to be or is represented for general use. […]

[2] = mutagenicity (AMES) tests
Method: (§1) Additional studies of D-pinitol's safety and efficacy included mutagenicity (AMES) tests, which were negative. […] In a phase I safety and pharmacokinetic study of D-pinitol in AD subjects, the time to peak plasma levels was about 90 minutes after administration, and the elimination half-life (t1/2) was 10 hours.

[3] = subjects with insulin resistance, dosed daily with 20 mg/kg for 28 days; cited from earlier work
[4] = test system: rats; assay: acute toxicity studies in rats; type: in vivo, rat
Method: as §1

[5] = phase I safety and pharmacokinetic study in AD subjects; type: in vivo, human
Method: as §1

CO[C@H]1[C@H](O)[C@@H](O)[C@@H](O)[C@H](O)[C@@H]1O [D-pinitol, 3-O-methyl-D-chiro-inositol]
solubility in water [1]: soluble in water | mutagenicity (AMES) tests [2]: negative | increase in plasma D-pinitol concentration as compared to baseline [3]: 48 fold | LD50 [4]: > 2000 mg/kg | elimination half-life (t1/2) [5]: 10 h | time to peak plasma levels ([5]; after administration): about 90 minutes
